Values quoted from earlier work, collected in patent US20260069708A1 (priority 2022, published 2026).

Details: reportedly

Q: For COc1cccc2c1C(=O)c1c(O)c3c(c(O)c1C2=O)C[C@@](O)(C(=O)CO)C[C@@H]3O[C@H]1C[C@H](N)[C@H](O)[C@H](C)O1 [Dox, doxorubicin], which “fold lower IC50 than irinotecan” value is on record?
A: 10-100 fold
